Non-standard residues stand in square brackets, D forms with d. Residues, ends and D or L forms follow the SMILES beside them. Groups on a side chain read outwards from the residue. *: point of attachment. DOTA = O=C(O)CN1CCN(CC(=O)O)CCN(CC(=O)*)CCN(CC(=O)O)CC1; dTyr(3-I) = N[C@H](Cc1ccc(O)c(I)c1)C(=O)O; 2Nal = N[C@@H](Cc1ccc2ccccc2c1)C(=O)O; dNMeOrn = CN[C@H](CCCN)C(=O)O; 4Amb = NCc1ccc(C(=O)O)cc1; dDap = NC[C@@H](N)C(=O)O
How the values were obtained:
[1] = system: CXCR4-expressing Chem_1 cells; test: Determination of internalization, dual tracer with 125I-Fc-131; type: cell-based; settings: for Cell-bound [%] / Internalized [%]: of total cellular activity
Outline: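 Receptor blockade used AMD3100 (1 mM stock) versus medium-treated wells, triplicate per time point, in Chem_1 cells cultured at 37 °C in DMEM-F12/10% FBS. Activity of supernatant, surface-bound and internalized (1 M NaOH) fractions measured by γ-counter, corrected for non-specific uptake and normalised to standard ligand.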

[2] = Octanol/PBS partition coefficient (logD7.4); type: physicochemical; settings: n-octanol/PBS pH 7.4, radiolabeled compound
Procedure: The tubes were vortexed at maximum speed for 3 min to ensure equilibrium before centrifugation at 15.000×g for 5 min on a Biofuge 15 from Heraeus Holding GmbH (Osterode, Germany). An aliquot of 100 μL of each fraction was measured in the γ-counter and the log D7.4 calculated as follows: […]

[3] = Biodistribution in Jurkat tumor-bearing CB-17 SCID mice; type: in vivo; settings: female, CB-17 SCID, mouse, in vivo, iv, total radioactivity
Procedure: All animal experiments were conducted in accordance with general animal welfare regulations in Germany and the institutional guidelines for the care and use of animals. To establish tumor xenografts, Jurkat cells (2-3×10^7 cells) were suspended in a mixture of Gibco's RPMI 1640 medium and Matrigel (1/1; v/v) from BD Biosciences (Heidelberg, Germany), and inoculated subcutaneously onto the right shoulder of 6-10 weeks old CB17-SCID mice from either Charles River GmbH (Sulzfeld, Germany) or the in-house mouse breeding facility. Mice were used when tumors had grown to a diameter of 5-8 mm (4-10 weeks after inoculation).
Approximately 0.5-20 MBq (0.02-0.20 nmol) of the ^125I-, ^177Lu-, ^99mTc-, ^18F- or ^68Ga-labeled ligand were injected into the tail vein of Jurkat tumor-bearing CB-17 SCID mice and the animals sacrificed after the respective biodistribution time. Selected organs were removed, weighted and measured in a γ-counter.

[4] = target: CXCR4 (Homo sapiens, UniProt P61073); test: Determination of IC50: competition with 125I-Fc-131 on CXCR4-positive Jurkat cells; type: binding; design: CXCR4-positive Jurkat T lymphocyte cells were grown in Gibco's RPMI 1640 GlutaMAX medium; endogenous in cells; host or cells: Jurkat T lymphocyte cells (whole cells in suspension, 400.000 per tube); settings: unlabeled or cold (natGa/natLu) compound vs 125I-Fc-131, Jurkat cells; read-out: IC50;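 further: test compound at 10^−5 to 10^−11 M competed for 2 h at 8 °C with the radioligand on 400,000 cells per well, bound versus free activity measured by γ-counting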
Sequence of CXCR4 (P61073 whole entry): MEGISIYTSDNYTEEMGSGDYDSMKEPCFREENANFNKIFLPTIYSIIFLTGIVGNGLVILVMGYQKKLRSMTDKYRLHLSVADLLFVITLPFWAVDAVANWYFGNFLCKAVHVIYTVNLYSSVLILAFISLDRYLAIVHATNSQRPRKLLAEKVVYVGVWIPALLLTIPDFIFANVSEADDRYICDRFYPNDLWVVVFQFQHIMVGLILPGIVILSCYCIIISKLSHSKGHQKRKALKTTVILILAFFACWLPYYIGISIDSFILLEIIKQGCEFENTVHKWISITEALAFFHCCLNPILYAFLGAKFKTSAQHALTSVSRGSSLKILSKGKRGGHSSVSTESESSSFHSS
Procedure: For in vitro experiments, cells were counted in a hemocytometer using trypan blue as contrast agent. The cell suspension was centrifuged, and the pellet resuspended in HBSS (+1 wt % BSA) to a concentration of 2 mio cells/mL. […] 200 μL of cell suspension (400.000 cells per well) were added to obtain a final peptide concentration range of 10^−5-10^−11 M. The tubes were cooled for 2 h at 8° C. to prevent internalization. The experiment was stopped by removal of the supernatant. 200 μL HBSS were added onto the cells, the suspension centrifuged, and the supernatant pooled with the respective first fractions. This step was repeated once more before the tubes containing the supernatants and the ones containing the cell pellets were subjected to activity measurement in the γ-counter.

C[C@@H](NC(=O)[C@@H](CCCNC(=N)N)NC(=O)[C@@H](CN)NC(=O)CN1CCN(CC(=O)O)CCN(CC(=O)O)CCN(CC(=O)O)CC1)C(=O)NCc1ccc(C(=O)NCCC[C@@H]2C(=O)N[C@@H](CCCNC(=N)N)C(=O)N[C@@H](Cc3ccc4ccccc4c3)C(=O)NCC(=O)N[C@H](Cc3ccc(O)c(I)c3)C(=O)N2C)cc1 [CXCR4-DOTA-2 [Lu]] (cyclo([dTyr(3-I)][dNMeOrn]([4Amb-dA-dR-dDap-DOTA])R[2Nal]G))
Internalized in relation to 125I-Fc-131 [%] ([1]; 15 min): 247 ± 26.2%
Cell-bound [%] ([1]; 15 min): 8.31 ± 1.20%
Internalized [%] ([1]; 15 min): 11.2 ± 1.93%
Internalized in relation to 125I-Fc-131 [%] ([1]; 30 min): 347 ± 36.1%
Cell-bound [%] ([1]; 30 min): 13.5 ± 1.38%
Internalized [%] ([1]; 30 min): 17.8 ± 2.02%
Internalized in relation to 125I-Fc-131 [%] ([1]; 60 min): 368 ± 36.9%
Cell-bound [%] ([1]; 60 min): 16.4 ± 1.31%
Internalized [%] ([1]; 60 min): 21.8 ± 1.10%
Internalized in relation to 125I-Fc-131 [%] ([1]; 120 min): 456 ± 76.3%
Internalization [% Fc-131] 2 h ([1]; 2 h, 177Lu-labeled): 456 % Fc-131
Cell-bound [%] ([1]; 120 min): 22.2 ± 2.68%
Internalized [%] ([1]; 120 min): 27.3 ± 3.62%
logD7.4 [2]: −2.20 ± 0.06 (8)
tissue uptake at 1 h ([3]; % iD/g Blood): 1.67 %ID/g
tissue uptake at 1 h ([3]; % iD/g Bone): 0.9 %ID/g
tissue uptake at 1 h ([3]; % iD/g Heart): 1.04 %ID/g
tissue uptake at 1 h ([3]; % iD/g Intestine): 0.9 %ID/g
tissue uptake at 1 h ([3]; % iD/g Kidney): 15.7 %ID/g
tissue uptake at 1 h ([3]; % iD/g Liver): 17.7 %ID/g
tissue uptake at 1 h ([3]; % iD/g Lung): 2.94 %ID/g
tissue uptake at 1 h ([3]; % iD/g Muscle): 0.3 %ID/g
tissue uptake at 1 h ([3]; % iD/g Pancreas): 0.53 %ID/g
tissue uptake at 1 h ([3]; % iD/g Spleen): 3.62 %ID/g
tissue uptake at 1 h ([3]; % iD/g Stomach): 1.41 %ID/g
tissue uptake at 1 h ([3]; % iD/g Tumor): 5.27 %ID/g
IC50 [4]: 6.47 ± 1.75 nM

Source: US20250288704A1, “CXCR4-LIGANDS FOR DIAGNOSTIC AND THERAPEUTIC USE AND PRECURSORS THEREOF” (priority 2021, published 2025)
